Measured values taken from US7183267B2, “β-lactamase inhibitors and methods of use thereof” (priority 2003, dated 2007).
Converted amounts (≈) assume the structure as drawn. Read-outs that look alike come from different tables or passages of the source.

What was measured:
Assay type in all cases: cell-based
[1] = system: methicillin resistant S. aureus ATCC 33591 (MRSA-ATCC); experiment: MIC assay, broth microdilution, MRSA-ATCC; conditions: Staphylococcus aureus
Method: (1) methicillin resistant S. aureus ATCC 33591 (MRSA-ATCC). This strain was obtained from American Type Culture Collection (ATCC), Manassas, Md.;
(§1) The strains were processed according to procedures recommended by ATCC, or procedures that are routinely used. Single colonies of each organism were picked for purification to generate pure working cultures. Prior to each experiment each strain was subcultured on a fresh Mueller-Hinton agar plate (MHA).
(§2) Inocula for the MIC assays were prepared by transferring a tiny portion of one colony from a MHA plate to 2 ml of Mueller-Hinton broth (MHB) such that the estimated cell density was about 10^7 colony forming unit (CFU)/ml. This cell suspension was then further diluted 10-fold (to 10^6 CFU/ml) by transferring the 2 ml cell suspension to 18 ml of MHB. Addition of 50 μl of this dilute cell suspension to 50 μl of growth medium yielded the desired cell density, namely about 5×10^4 CFU/well, or 5×10^5 CFU/ml.
(§3) The MIC value of oxacillin was determined using the broth microdilution procedure recommended by the National Committee of Clinical Laboratory Standards (NCCLS, 2000).
(§4) The MIC experiments were performed in duplicate in 96-well microtiter plates using MHB. A stock solution of 2.6 mg/0.5 ml was prepared in dimethylsulfoxide (DMSO). A total of 8 two-fold serial dilutions were made with DMSO. Initial oxacillin doses used were (μg/ml): 64, 32, 16, 8, 4, 2, 1, and 0.5. Doses were adjusted in the confirmatory experiment, if needed, in order to establish an actual MIC value.
(§5) To each well of a 96 well microtiter plate was added 47.5 μl of MHB. A volume of 2.5 μl of each dilution of oxacillin was then transferred to appropriate wells containing the medium. All wells, except the sterility control wells, were then inoculated with 50 μl of a diluted cell suspension to give a final volume of 100 μl and a final cell density of 5×10^4 CFU/well. The volume in the sterility control wells was adjusted to 100 μl with MHB. A sterile pipette tip was used to mix the contents of each well (one tip was used going from the low to the high concentration in the same column). The microtiter plates were covered with the lids and were placed in large Stratagene Big Blue plates (Cat. # 400041). Four large kimwipes moistened with tap water were placed near the edges of the Stratagene plates to prevent evaporation of the medium. The microtiter plates were incubated for at least 24 hours at 35° C. The plates were then evaluated for growth in each well. Controls included: medium sterility and negative control (medium and bacteria only).
(§6) The procedure used to determine the antimicrobial activity of the compounds of the present invention was identical to the broth microdilution procedure described above with the exception of the preparation of the stock solutions. Stock solution at concentration of 40.96 mg/0.5 ml was prepared in DMSO for each of the compounds. A total of 8 two-fold dilutions were then made in DMSO. A volume of 2.5 μl of each dilution was delivered to appropriate wells. The initial doses used were (μg/ml): 512, 256, 128, 64, 32, 16, 8, and 4.
(§7) A numerical code was used to evaluate the extent of growth as indicated below. • 0: absence of growth • 1: barely visible (faint) growth • 2: fair growth but less than the negative solvent control • 3: growth is equivalent to the negative solvent control.
(§8) The lowest dose at which no visible growth is observed was determined to be the MIC value.
(§9) MIC assays were performed with oxacillin and the four compounds. Each of the compounds was tested at the following 8 doses (μg/ml): 512, 256, 128, 64, 32, 16, 8, and 4. Oxacillin was tested at the following 8 doses (μg/ml): 64, 32, 16, 8, 4, 2, 1, and 0.5.

[2] = system: methicillin sensitive S. aureus ATCC 25923 (MSSA); experiment: MIC assay, broth microdilution, MSSA; conditions: Staphylococcus aureus
Method: (3) methicillin sensitive S. aureus ATCC 25923 (MSSA). This strain was obtained from ATCC and was used as a control.
as §1, §2, §3, §4, §5, §6, §7, §8, §9

[3] = system: methicillin resistant S. aureus ATCC 33591 (MRSA-ATCC); experiment: Matrix system: oxacillin plus β-lactamase inhibitor, MRSA-ATCC; parameters: key to extent of growth (numerical code): 0 = no growth, 1 = faint, 2 = fair, 3 = equal to solvent control
Method: as §5, §7, §8
The effect of the four compounds of the present invention on oxacillin resistance of the MRSA strains was determined using a matrix system. The β-lactamase inhibitors were tested at 5 doses against up to eleven concentrations of oxacillin. […] A 96-well microtiter plate was used for the matrix system. The procedure was identical to that described above for the MIC determination, with the exception that both oxacillin and one each of the β-lactamase inhibitors was added, 2.5 μl each, to the wells prior to addition of the test organisms.
Matrix Study:Oxacillin and Compound FL201 with MRSA-ATCC
Matrix Study: Oxacillin and Compound Fl202 with MRSA-ATCC

SMILES: Cc1onc(-c2ccccc2)c1C(=O)N[C@@H]1C(=O)N2[C@@H]1SC(C)(C)[C@@H]2C(=O)O [Oxacillin, reference compound]
- MIC ([1]; MRSA-ATCC, substance alone, at least 24 hours at 35° C., read-out: MIC): 32 µg/mL (≈ 79.7 µM)
- MIC ([2]; MSSA, substance alone, at least 24 hours at 35° C., read-out: MIC): 0.25 µg/mL (≈ 0.623 µM)
- MIC ([3]; Staphylococcus aureus, 24 h, matrix study, compound 0 μg/ml): 64 µg/mL
- extent of growth (numerical code) ([3]; oxacillin 0.064 μg/ml + compound 0 μg/ml): 3
- extent of growth (numerical code) ([3]; oxacillin 0.125 μg/ml + compound 0 μg/ml): 3
- extent of growth (numerical code) ([3]; oxacillin 0.25 μg/ml + compound 0 μg/ml): 3
- extent of growth (numerical code) ([3]; oxacillin 0.5 μg/ml + compound 0 μg/ml): 3
- extent of growth (numerical code) ([3]; oxacillin 1 μg/ml + compound 0 μg/ml): 3
- extent of growth (numerical code) ([3]; oxacillin 2 μg/ml + compound 0 μg/ml): 3
- extent of growth (numerical code) ([3]; oxacillin 4 μg/ml + compound 0 μg/ml): 3
- extent of growth (numerical code) ([3]; oxacillin 8 μg/ml + compound 0 μg/ml): 3
- extent of growth (numerical code) ([3]; oxacillin 16 μg/ml + compound 0 μg/ml): 2
- extent of growth (numerical code) ([3]; oxacillin 32 μg/ml + compound 0 μg/ml): 2
- extent of growth (numerical code) ([3]; oxacillin 64 μg/ml + compound 0 μg/ml): 0

SMILES: COC(=O)c1cc(B(O)O)cc([N+](=O)[O-])c1 [Compound F1202]
- MIC ([1]; 24 h): 16 µg/mL (≈ 71.1 µM)
- MIC ([2]; 24 h): 128 µg/mL (≈ 569 µM)
- MIC of oxacillin ([3]; matrix study, with compound 1 μg/ml): 32 µg/mL
- MIC of oxacillin ([3]; matrix study, with compound 2 μg/ml): 16 µg/mL
- MIC of oxacillin ([3]; matrix study, with compound 4 μg/ml): 1 µg/mL
- MIC of oxacillin ([3]; matrix study, with compound 8 μg/ml): 0.125 µg/mL
- MIC of oxacillin ([3]; matrix study, with compound 16 μg/ml): <0.064 µg/mL
- extent of growth (numerical code) ([3]; oxacillin 0 μg/ml + compound 1 μg/ml): 3
- extent of growth (numerical code) ([3]; oxacillin 0 μg/ml + compound 2 μg/ml): 2
- extent of growth (numerical code) ([3]; oxacillin 0 μg/ml + compound 4 μg/ml): 2
- extent of growth (numerical code) ([3]; oxacillin 0 μg/ml + compound 8 μg/ml): 1
- extent of growth (numerical code) ([3]; oxacillin 0 μg/ml + compound 16 μg/ml): 1
- extent of growth (numerical code) ([3]; oxacillin 0.064 μg/ml + compound 1 μg/ml): 3
- extent of growth (numerical code) ([3]; oxacillin 0.064 μg/ml + compound 2 μg/ml): 3
- extent of growth (numerical code) ([3]; oxacillin 0.064 μg/ml + compound 4 μg/ml): 2
- extent of growth (numerical code) ([3]; oxacillin 0.064 μg/ml + compound 8 μg/ml): 1
- extent of growth (numerical code) ([3]; oxacillin 0.064 μg/ml + compound 16 μg/ml): 0
- extent of growth (numerical code) ([3]; oxacillin 0.125 μg/ml + compound 1 μg/ml): 3
- extent of growth (numerical code) ([3]; oxacillin 0.125 μg/ml + compound 2 μg/ml): 3
- extent of growth (numerical code) ([3]; oxacillin 0.125 μg/ml + compound 4 μg/ml): 2
- extent of growth (numerical code) ([3]; oxacillin 0.125 μg/ml + compound 8 μg/ml): 0
- extent of growth (numerical code) ([3]; oxacillin 0.125 μg/ml + compound 16 μg/ml): 0
- extent of growth (numerical code) ([3]; oxacillin 0.25 μg/ml + compound 1 μg/ml): 3
- extent of growth (numerical code) ([3]; oxacillin 0.25 μg/ml + compound 2 μg/ml): 2
- extent of growth (numerical code) ([3]; oxacillin 0.25 μg/ml + compound 4 μg/ml): 1
- extent of growth (numerical code) ([3]; oxacillin 0.25 μg/ml + compound 8 μg/ml): 0
- extent of growth (numerical code) ([3]; oxacillin 0.25 μg/ml + compound 16 μg/ml): 0
- extent of growth (numerical code) ([3]; oxacillin 0.5 μg/ml + compound 1 μg/ml): 3
- extent of growth (numerical code) ([3]; oxacillin 0.5 μg/ml + compound 2 μg/ml): 2
- extent of growth (numerical code) ([3]; oxacillin 0.5 μg/ml + compound 4 μg/ml): 1
- extent of growth (numerical code) ([3]; oxacillin 0.5 μg/ml + compound 8 μg/ml): 0
- extent of growth (numerical code) ([3]; oxacillin 0.5 μg/ml + compound 16 μg/ml): 0
- extent of growth (numerical code) ([3]; oxacillin 1 μg/ml + compound 1 μg/ml): 3
- extent of growth (numerical code) ([3]; oxacillin 1 μg/ml + compound 2 μg/ml): 2
- extent of growth (numerical code) ([3]; oxacillin 1 μg/ml + compound 4 μg/ml): 0
- extent of growth (numerical code) ([3]; oxacillin 1 μg/ml + compound 8 μg/ml): 0
- extent of growth (numerical code) ([3]; oxacillin 1 μg/ml + compound 16 μg/ml): 0
- extent of growth (numerical code) ([3]; oxacillin 2 μg/ml + compound 1 μg/ml): 2
- extent of growth (numerical code) ([3]; oxacillin 2 μg/ml + compound 2 μg/ml): 2
- extent of growth (numerical code) ([3]; oxacillin 2 μg/ml + compound 4 μg/ml): 0
- extent of growth (numerical code) ([3]; oxacillin 2 μg/ml + compound 8 μg/ml): 0
- extent of growth (numerical code) ([3]; oxacillin 2 μg/ml + compound 16 μg/ml): 0
- extent of growth (numerical code) ([3]; oxacillin 4 μg/ml + compound 1 μg/ml): 2
- extent of growth (numerical code) ([3]; oxacillin 4 μg/ml + compound 2 μg/ml): 2
- extent of growth (numerical code) ([3]; oxacillin 4 μg/ml + compound 4 μg/ml): 0
- extent of growth (numerical code) ([3]; oxacillin 4 μg/ml + compound 8 μg/ml): 0
- extent of growth (numerical code) ([3]; oxacillin 4 μg/ml + compound 16 μg/ml): 0
- extent of growth (numerical code) ([3]; oxacillin 8 μg/ml + compound 1 μg/ml): 2
- extent of growth (numerical code) ([3]; oxacillin 8 μg/ml + compound 2 μg/ml): 1
- extent of growth (numerical code) ([3]; oxacillin 8 μg/ml + compound 4 μg/ml): 0
- extent of growth (numerical code) ([3]; oxacillin 8 μg/ml + compound 8 μg/ml): 0
- extent of growth (numerical code) ([3]; oxacillin 8 μg/ml + compound 16 μg/ml): 0
- extent of growth (numerical code) ([3]; oxacillin 16 μg/ml + compound 1 μg/ml): 2
- extent of growth (numerical code) ([3]; oxacillin 16 μg/ml + compound 2 μg/ml): 0
- extent of growth (numerical code) ([3]; oxacillin 16 μg/ml + compound 4 μg/ml): 0
- extent of growth (numerical code) ([3]; oxacillin 16 μg/ml + compound 8 μg/ml): 0
- extent of growth (numerical code) ([3]; oxacillin 16 μg/ml + compound 16 μg/ml): 0
- extent of growth (numerical code) ([3]; oxacillin 32 μg/ml + compound 1 μg/ml): 0
- extent of growth (numerical code) ([3]; oxacillin 32 μg/ml + compound 2 μg/ml): 0
- extent of growth (numerical code) ([3]; oxacillin 32 μg/ml + compound 4 μg/ml): 0
- extent of growth (numerical code) ([3]; oxacillin 32 μg/ml + compound 8 μg/ml): 0
- extent of growth (numerical code) ([3]; oxacillin 32 μg/ml + compound 16 μg/ml): 0
- extent of growth (numerical code) ([3]; oxacillin 64 μg/ml + compound 1 μg/ml): 0
- extent of growth (numerical code) ([3]; oxacillin 64 μg/ml + compound 2 μg/ml): 0
- extent of growth (numerical code) ([3]; oxacillin 64 μg/ml + compound 4 μg/ml): 0
- extent of growth (numerical code) ([3]; oxacillin 64 μg/ml + compound 8 μg/ml): 0
- extent of growth (numerical code) ([3]; oxacillin 64 μg/ml + compound 16 μg/ml): 0
